Laboratory results reported in patent US12172946B2, “Compound containing diphenylmethane structure and use thereof” (GUANGZHOU TROJAN PHARMATEC LTD., priority 2019, dated 2024).

Assay: solubility of the compound in common solvents
Format: physicochemical
Settings: 25-30° C.; for solubility in DMF: N,N-dimethylformamide; for solubility in i-PrOAc: isopropyl acetate; for solubility in MTBE: methyl tert-butyl ether
Method: The solubility of the compound of the present invention in common solvents was investigated (25-30° C.), and the results are shown in Table 1. It can be seen from Table 1 that the compound of the present invention has good solubility in all of heptane, isopropyl acetate (i-PrOAc), methyl tert-butyl ether (MTBE) and N,N-dimethylformamide (DMF), and particularly, the solubility in N,N-dimethylformamide is much higher than Comparative Examples.

| Compound | solubility in DMSO [%] | solubility in MeOH [%] | solubility in DMF [%] | solubility in Heptane [%] | solubility in i-PrOAc [%] | solubility in MTBE [%] |
| --- | --- | --- | --- | --- | --- | --- |
| CCCCCCCCCCCCCOc1ccc(CN(CCOCCOc2ccc(C(N)c3ccccc3)cc2)C(=O)c2cc(OCCCCCCCCC)c(OCCCCCCCCC)c(OCCCCCCCCC)c2)cc1OCCCCCCCCCCCCC (stereo not drawn) [DPA-029] | <1 | <1 | >100 | >100 | >100 | >100 |
| CCCCCCCCCCCCCOc1ccc(CN(CC(=O)NCCOCCOc2ccc(C(N)c3ccccc3)cc2)C(=O)CC(C)CC(C)(C)C)cc1OCCCCCCCCCCCCC (stereo not drawn) [DPA-030, 4-(2-(2-(2-(N″-3,4-di(isomeric tridecyloxy)-benzyl)-isononanoamido)-acetamido)-ethoxy)-ethoxy-benzhydrylamine] | <1 | <1 | >40 | >40 | >40 | >40 |
| CCCCCCCCCCCCCOc1ccc(CN(CC(=O)NCCOCCOc2ccc(C(N)c3ccccc3)cc2)C(=O)c2cc(OCCCCCCCCC)c(OCCCCCCCCC)c(OCCCCCCCCC)c2)cc1OCCCCCCCCCCCCC (stereo not drawn) [DPA-031, 4-(2-(2-(2-(N″-3,4-di(isomeric tridecyloxy)-benzyl)-3,4,5-tri(isononyloxy)-benzamido)-acetamido)-ethoxy)-ethoxy-benzhydrylamine] | <1 | <1 | >100 | >50 | >100 | >100 |
| CCCCCCCCCCCCCOc1cc(C(=O)NCCOCCOc2ccc(C(O)(c3ccccc3)c3ccccc3)cc2)cc(OCCCCCCCCCCCCC)c1OCCCCCCCCCCCCC [DPA-032] | <1 | <1 | >40 | >10 | >10 | >10 |
| CCCCCCCCCCCCCOc1cc(C(=O)NCCOCCOc2ccc(C(O)(c3ccccc3)c3ccccc3Cl)cc2)cc(OCCCCCCCCCCCCC)c1OCCCCCCCCCCCCC (stereo not drawn) [DPA-033] | <1 | <1 | >40 | >30 | >50 | >50 |
| CCCCCCCCCCCCCOc1cc(C(=O)NCCOCCOc2ccc(C(O)(c3ccccc3)c3ccc(Cl)cc3)cc2)cc(OCCCCCCCCCCCCC)c1OCCCCCCCCCCCCC (stereo not drawn) [DPA-034] | <1 | <1 | >40 | >30 | >50 | >50 |
| CC(C)CCCC(C)CCCC(C)CCCC(C)CCOc1ccc(C(N)c2ccc(OCCC(C)CCCC(C)CCCC(C)CCCC(C)C)cc2)cc1 (stereo not drawn) [REF-001, 4,4′-di(dihydrophytanyloxy)-benzhydrylamine, reference compound] | <1 | <1 | >0.1 | >50 | >100 | >100 |
| CC(C)CCCC(C)CCCC(C)CCCC(C)CCOc1cc(COc2ccc(C(N)c3ccccc3)cc2)cc(OCCC(C)CCCC(C)CCCC(C)CCCC(C)C)c1OCCC(C)CCCC(C)CCCC(C)CCCC(C)C (stereo not drawn) [REF-002, reference compound] | <1 | <1 | >0.1 | >100 | >100 | >100 |
